Legend:
Avi-tagged FL MALT-1 = Avi-tagged FL MALT-1 (Homo sapiens (Human), UniProt Q9UDY8); assay: MALT-1 Fluorogenic Peptide Cleavage Assay (MALT1 inhibition assay); assay type: biochemical; conditions: Ac-LRSR-AMC peptide substrate, 30 min pre-incubation, 90 min reaction at room temperature
In short: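 Full-length Avi-tagged human MALT-1 (40 nM working stock) pre-incubated 30 min at RT with compound in 25 mM HEPES pH 6.89, 660 mM sodium citrate, 1 mM TCEP, […], 0.05% CHAPS, 2% DMSO. Ac-LRSR-AMC added at Km (50 μM working stock) or 10×Km (280 μM working stock); 90 min at RT, AMC fluorescence (ex 342/em 441 nm), IC50 from % inhibition curves.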

[1] = tested on: NF-kB reporter in Jurkat cells; assay: NF-kB reporter assay in Jurkat cells stimulated with aCD3/aCD28/PMA; assay type: cell-based; conditions: Homo sapiens; Jurkat cells, 1 hr compound pre-incubation, aCD3/aCD28/PMA stimulation 4 hr, One-Glo readout; read-out: NF-kB Reporter Assay IC50
In short: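 Jurkat cells (25,000/well, serum-free RPMI) were pre-incubated 1 h at 37° C with serially diluted compound, then stimulated 4 h with aCD3/aCD28/PMA at final […]. NF-kB reporter activity was read by One-Glo luminescence; IC50 values reported.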

Chain of Avi-tagged FL MALT-1 (Q9UDY8 whole entry): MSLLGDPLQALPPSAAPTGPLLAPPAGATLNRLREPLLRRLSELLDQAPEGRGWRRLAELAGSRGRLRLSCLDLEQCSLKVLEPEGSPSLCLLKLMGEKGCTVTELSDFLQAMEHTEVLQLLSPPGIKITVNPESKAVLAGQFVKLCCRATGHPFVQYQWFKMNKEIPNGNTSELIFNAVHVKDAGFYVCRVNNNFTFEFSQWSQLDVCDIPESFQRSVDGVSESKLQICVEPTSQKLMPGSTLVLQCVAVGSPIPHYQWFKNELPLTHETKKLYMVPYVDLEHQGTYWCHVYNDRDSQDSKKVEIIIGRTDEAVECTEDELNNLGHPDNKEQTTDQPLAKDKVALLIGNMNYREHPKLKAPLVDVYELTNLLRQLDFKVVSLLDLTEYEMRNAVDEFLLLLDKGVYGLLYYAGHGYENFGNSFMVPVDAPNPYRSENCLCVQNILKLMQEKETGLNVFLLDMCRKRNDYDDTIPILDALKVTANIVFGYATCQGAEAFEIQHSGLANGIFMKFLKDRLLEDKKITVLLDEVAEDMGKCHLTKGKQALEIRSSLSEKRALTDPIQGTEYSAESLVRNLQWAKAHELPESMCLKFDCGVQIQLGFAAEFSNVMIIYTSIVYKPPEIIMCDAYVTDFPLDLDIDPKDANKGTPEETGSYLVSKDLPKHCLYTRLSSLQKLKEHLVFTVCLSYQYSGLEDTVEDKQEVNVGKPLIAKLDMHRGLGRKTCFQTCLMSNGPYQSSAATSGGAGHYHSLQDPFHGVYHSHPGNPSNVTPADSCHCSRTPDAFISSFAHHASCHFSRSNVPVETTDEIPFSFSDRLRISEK

SMILES	IC50 (Avi-tagged FL MALT-1) [nM]	IC50 [1] [nM]
CCc1ccc2[nH]nc(C)c2c1NS(=O)(=O)c1cnn(-c2ccnc(C(F)(F)F)c2)c1 [Compound I-39, N-(5-Ethyl-3-Methyl-1H-Indazol-4-yl)-1-(2-(Trifluoromethyl) Pyridin-4-yl)-1H-Pyrazole-4-Sulfonamide]	≤ 400	< 400
CCc1ccc2c(c(C)nn2C)c1NS(=O)(=O)c1cnn(-c2ccnc(C(F)(F)F)c2)c1 [Compound I-40, N-(5-ethyl-1,3-dimethyl-1H-Indazol-4-yl)-1-(2-(Trifluoromethyl)Pyridin-4-yl)-1H-Pyrazole-4-Sulfonamide]	≤ 400	400 to 1000
CCc1ccc2cnn(C)c2c1NS(=O)(=O)c1cnn(-c2ccc(OC)cn2)c1 [Compound I-42, N-(6-Ethyl-1-Methyl-1H-Indazol-7-yl)-1-(5-Methoxypyridin-2-yl)-1H-Pyrazole-4-Sulfonamide]	400 to 1000	400 to 1000
CCc1ccc2cnn(C)c2c1NS(=O)(=O)c1cnn(-c2cc(OC(F)(F)F)ccn2)c1 [Compound I-43, N-(6-Ethyl-1-Methyl-1H-Indazol-7-yl)-1-(4-(Trifluoromethoxy) Pyridin-2-yl)-1H-Pyrazole-4-Sulfonamide]	> 2500	> 2500
Cc1n[nH]c2cccc(NS(=O)(=O)c3cnn(-c4ccc(C(F)(F)F)cn4)c3)c12 [Compound I-45, N-(3-Methyl-1H-Indazol-4-yl)-1-(5-(Trifluoromethyl)Pyridin-2-yl)-1H-Pyrazole-4-Sulfonamide]	> 2500	< 400
Cn1cc2ccc(Cl)c(NS(=O)(=O)c3cnn(-c4ccnc(C(F)(F)F)c4)c3)c2n1 [Compound I-47, N-(6-Chloro-2-Methyl-2H-Indazol-7-yl)-1-(2-(Trifluoromethyl) Pyridin-4-yl)-1H-Pyrazole-4-Sulfonamide]	> 2500	> 2500
CCc1ccc2cn(C)nc2c1NS(=O)(=O)c1cnn(-c2ccnc(C(F)(F)F)c2)c1 [Compound I-48, N-(6-Ethyl-2-Methyl-2H-Indazol-7-yl)-1-(2-(Trifluoromethyl) Pyridin-4-yl)-1H-Pyrazole-4-Sulfonamide]	≤ 400	> 2500
Cc1cc(NS(=O)(=O)c2cnn(-c3ccnc(C(F)(F)F)c3)c2)c2c(cnn2C)c1 [Compound I-49, N-(1,5-Dimethyl-1H-Indazol-7-yl)-1-(2-(Trifluoromethyl) Pyridin-4-yl)-1H-Pyrazole-4-Sulfonamide]	> 2500	> 2500

Next, values leading:

IC50 (Avi-tagged FL MALT-1) [nM]	IC50 [1] [nM]	SMILES
≤ 400	< 400	CCc1ccc2cnn(C)c2c1NS(=O)(=O)c1cnn(-c2cc(Cl)ccn2)c1 [Compound I-36, 1-(4-Chloropyridin-2-yl)-N-(6-Ethyl-1-Methyl-1H-indazol-7-yl)-1H-Pyrazole-4-Sulfonamide]
≤ 400	< 400	CCc1ccc2cnn(C)c2c1NS(=O)(=O)c1cnn(-c2ccnc(Cl)c2)c1 [Compound I-37, 1-(2-Chloropyridin-4-yl)-N-(6-Ethyl-1-Methyl-1H-Indazol-7-yl)-1H-Pyrazole-4-Sulfonamide]
≤ 400	< 400	CCCc1ccc2cnn(C)c2c1NS(=O)(=O)c1cnn(-c2ccnc(C(F)(F)F)c2)c1 [Compound I-38, N-(1-Methyl-6-Propyl-1H-Indazol-7-yl)-1-(2-(Trifluoromethyl) Pyridin-4-yl)-1H-Pyrazole-4-Sulfonamide]
≤ 400	< 400	CCc1ccc2cnn(C)c2c1NS(=O)(=O)c1cnn(-c2ccnc(N(C)C)c2)c1 [Compound I-41, 1-(2-(Dimethylamino)Pyridin-4-yl)-N-(6-ethyl-1-Methyl-1H-Indazol-7-yl)-1H-Pyrazole-4-Sulfonamide]
> 2500	> 2500	CCc1ccc2cnn(C)c2c1NS(=O)(=O)c1cnn(-c2cc(OC)ccn2)c1 [Compound I-44, N-(6-Ethyl-1-Methyl-1H-Indazol-7-yl)-1-(4-Methoxypyridin-2-yl)-1H-Pyrazole-4-Sulfonamide]
